Laboratory results: the supplement of paper PMC13380429

What was measured:
Conditions in all cases: 72 h
Calu-3 [1] = assay: relative viability EC50 (midpoint between 100% and the lowest measured viability); higher = less toxic
Caco-2 [2] = assay: as above
Vero E6 [3] = assay: as above
HepG2 [4] = assay: as above
U2OS [5] = assay: as above
Calu-3 [6] = assay: cell viability relative to DMSO; higher = less toxic
Caco-2 [7] = assay: as above
Vero E6 [8] = assay: as above
HepG2 [9] = assay: as above
U2OS [10] = assay: as above
Calu-3 [11] = assay: drug sensitivity score (DSS) for viability; higher = more toxic; extreme values may be limits of the assay
Caco-2 [12] = assay: as above
Vero E6 [13] = assay: as above
HepG2 [14] = assay: as above
U2OS [15] = assay: as above

Structure (SMILES)	relative viability EC50 (Calu-3 [1]) [µM]	relative viability EC50 (Caco-2 [2]) [µM]	relative viability EC50 (Vero E6 [3]) [µM]	relative viability EC50 (HepG2 [4]) [µM]	relative viability EC50 (U2OS [5]) [µM]	cell viability (Calu-3 [6]; 1 nM) [%]	cell viability (Calu-3 [6]; 10 nM) [%]	cell viability (Calu-3 [6]; 100 nM) [%]	cell viability (Calu-3 [6]; 1000 nM) [%]	cell viability (Calu-3 [6]; 10000 nM) [%]	cell viability (Caco-2 [7]; 1 nM) [%]	cell viability (Caco-2 [7]; 10 nM) [%]	cell viability (Caco-2 [7]; 100 nM) [%]	cell viability (Caco-2 [7]; 1000 nM) [%]	cell viability (Caco-2 [7]; 10000 nM) [%]	cell viability (Vero E6 [8]; 1 nM) [%]	cell viability (Vero E6 [8]; 10 nM) [%]	cell viability (Vero E6 [8]; 100 nM) [%]	cell viability (Vero E6 [8]; 1000 nM) [%]	cell viability (Vero E6 [8]; 10000 nM) [%]	cell viability (HepG2 [9]; 1 nM) [%]	cell viability (HepG2 [9]; 10 nM) [%]	cell viability (HepG2 [9]; 100 nM) [%]	cell viability (HepG2 [9]; 1000 nM) [%]	cell viability (HepG2 [9]; 10000 nM) [%]	cell viability (U2OS [10]; 1 nM) [%]	cell viability (U2OS [10]; 10 nM) [%]	cell viability (U2OS [10]; 100 nM) [%]	cell viability (U2OS [10]; 1000 nM) [%]	cell viability (U2OS [10]; 10000 nM) [%]	drug sensitivity score (Calu-3 [11])	drug sensitivity score (Caco-2 [12])	drug sensitivity score (Vero E6 [13])	drug sensitivity score (HepG2 [14])	drug sensitivity score (U2OS [15])
CC(=O)OCC1=C(C(=O)O)N2C(=O)[C@@H](NC(=O)Cc3cccs3)[C@H]2SC1 [cephalothin]	> 10	> 10	> 10	> 10	> 10	117	94.2	104	103	106	110	103	102	98.5	119	100	97.6	93.6	88.7	110	87.9	102	86	86.8	86.3	104	98.4	94.1	99.4	104	0	0	0	0.8	0
CC(CN(C)C)C(C)(O)Cc1ccc(Cl)cc1 (stereo not given) [clobutinol]	> 10	> 10	> 10	> 10	> 10	98.7	106	106	104	98.1	99.1	118	100	108	97.4	101	98.6	102	89.6	93.2	111	95.5	105	97.6	88.4	97.3	97.4	97.7	96.5	96.9	0	0	0.1	0.1	0
CC(C)(C)NCC(O)COc1cc(Cl)ccc1Cl (stereo not given) [cloranolol]	> 10	> 10	> 10	> 10	> 10	95	88.1	76.5	89.9	92.3	85.6	89.4	106	112	88.8	106	98.8	100	95.5	90	90.7	96.2	94.6	94.8	88.7	102	94.8	103	97.1	106	0	0	0	0	0
Nc1cc(C(Cl)=C(Cl)Cl)c(S(N)(=O)=O)cc1S(N)(=O)=O [clorsulon]	> 10	> 10	> 10	> 10	> 10	90.1	97.6	104	97.2	101	94.8	90.5	98.5	93.8	102	105	106	96.8	102	100	100	106	94.2	101	100	96.9	97	100	97	102	0	0	0	0	0
